{"source": "paper PMC5053573", "about": "“Structure-Based Design of Tetrahydroisoquinoline-7-carboxamides as Selective Discoidin Domain Receptor 1 (DDR1) Inhibitors” (Journal of Medicinal Chemistry, 2016)", "assay_in_all_cases": "biochemical", "conditions_in_all_cases": "read-out: %Ctrl @ 1000nM", "key": {"[1]": {"molecular_target": "DYRK1A (Homo sapiens, UniProt Q13627)"}, "[2]": {"molecular_target": "ROCK1 (Homo sapiens, UniProt Q13464)"}, "[3]": {"molecular_target": "LRRK2 (Homo sapiens, UniProt Q5S007)", "sequence (Q5S007 whole entry)": "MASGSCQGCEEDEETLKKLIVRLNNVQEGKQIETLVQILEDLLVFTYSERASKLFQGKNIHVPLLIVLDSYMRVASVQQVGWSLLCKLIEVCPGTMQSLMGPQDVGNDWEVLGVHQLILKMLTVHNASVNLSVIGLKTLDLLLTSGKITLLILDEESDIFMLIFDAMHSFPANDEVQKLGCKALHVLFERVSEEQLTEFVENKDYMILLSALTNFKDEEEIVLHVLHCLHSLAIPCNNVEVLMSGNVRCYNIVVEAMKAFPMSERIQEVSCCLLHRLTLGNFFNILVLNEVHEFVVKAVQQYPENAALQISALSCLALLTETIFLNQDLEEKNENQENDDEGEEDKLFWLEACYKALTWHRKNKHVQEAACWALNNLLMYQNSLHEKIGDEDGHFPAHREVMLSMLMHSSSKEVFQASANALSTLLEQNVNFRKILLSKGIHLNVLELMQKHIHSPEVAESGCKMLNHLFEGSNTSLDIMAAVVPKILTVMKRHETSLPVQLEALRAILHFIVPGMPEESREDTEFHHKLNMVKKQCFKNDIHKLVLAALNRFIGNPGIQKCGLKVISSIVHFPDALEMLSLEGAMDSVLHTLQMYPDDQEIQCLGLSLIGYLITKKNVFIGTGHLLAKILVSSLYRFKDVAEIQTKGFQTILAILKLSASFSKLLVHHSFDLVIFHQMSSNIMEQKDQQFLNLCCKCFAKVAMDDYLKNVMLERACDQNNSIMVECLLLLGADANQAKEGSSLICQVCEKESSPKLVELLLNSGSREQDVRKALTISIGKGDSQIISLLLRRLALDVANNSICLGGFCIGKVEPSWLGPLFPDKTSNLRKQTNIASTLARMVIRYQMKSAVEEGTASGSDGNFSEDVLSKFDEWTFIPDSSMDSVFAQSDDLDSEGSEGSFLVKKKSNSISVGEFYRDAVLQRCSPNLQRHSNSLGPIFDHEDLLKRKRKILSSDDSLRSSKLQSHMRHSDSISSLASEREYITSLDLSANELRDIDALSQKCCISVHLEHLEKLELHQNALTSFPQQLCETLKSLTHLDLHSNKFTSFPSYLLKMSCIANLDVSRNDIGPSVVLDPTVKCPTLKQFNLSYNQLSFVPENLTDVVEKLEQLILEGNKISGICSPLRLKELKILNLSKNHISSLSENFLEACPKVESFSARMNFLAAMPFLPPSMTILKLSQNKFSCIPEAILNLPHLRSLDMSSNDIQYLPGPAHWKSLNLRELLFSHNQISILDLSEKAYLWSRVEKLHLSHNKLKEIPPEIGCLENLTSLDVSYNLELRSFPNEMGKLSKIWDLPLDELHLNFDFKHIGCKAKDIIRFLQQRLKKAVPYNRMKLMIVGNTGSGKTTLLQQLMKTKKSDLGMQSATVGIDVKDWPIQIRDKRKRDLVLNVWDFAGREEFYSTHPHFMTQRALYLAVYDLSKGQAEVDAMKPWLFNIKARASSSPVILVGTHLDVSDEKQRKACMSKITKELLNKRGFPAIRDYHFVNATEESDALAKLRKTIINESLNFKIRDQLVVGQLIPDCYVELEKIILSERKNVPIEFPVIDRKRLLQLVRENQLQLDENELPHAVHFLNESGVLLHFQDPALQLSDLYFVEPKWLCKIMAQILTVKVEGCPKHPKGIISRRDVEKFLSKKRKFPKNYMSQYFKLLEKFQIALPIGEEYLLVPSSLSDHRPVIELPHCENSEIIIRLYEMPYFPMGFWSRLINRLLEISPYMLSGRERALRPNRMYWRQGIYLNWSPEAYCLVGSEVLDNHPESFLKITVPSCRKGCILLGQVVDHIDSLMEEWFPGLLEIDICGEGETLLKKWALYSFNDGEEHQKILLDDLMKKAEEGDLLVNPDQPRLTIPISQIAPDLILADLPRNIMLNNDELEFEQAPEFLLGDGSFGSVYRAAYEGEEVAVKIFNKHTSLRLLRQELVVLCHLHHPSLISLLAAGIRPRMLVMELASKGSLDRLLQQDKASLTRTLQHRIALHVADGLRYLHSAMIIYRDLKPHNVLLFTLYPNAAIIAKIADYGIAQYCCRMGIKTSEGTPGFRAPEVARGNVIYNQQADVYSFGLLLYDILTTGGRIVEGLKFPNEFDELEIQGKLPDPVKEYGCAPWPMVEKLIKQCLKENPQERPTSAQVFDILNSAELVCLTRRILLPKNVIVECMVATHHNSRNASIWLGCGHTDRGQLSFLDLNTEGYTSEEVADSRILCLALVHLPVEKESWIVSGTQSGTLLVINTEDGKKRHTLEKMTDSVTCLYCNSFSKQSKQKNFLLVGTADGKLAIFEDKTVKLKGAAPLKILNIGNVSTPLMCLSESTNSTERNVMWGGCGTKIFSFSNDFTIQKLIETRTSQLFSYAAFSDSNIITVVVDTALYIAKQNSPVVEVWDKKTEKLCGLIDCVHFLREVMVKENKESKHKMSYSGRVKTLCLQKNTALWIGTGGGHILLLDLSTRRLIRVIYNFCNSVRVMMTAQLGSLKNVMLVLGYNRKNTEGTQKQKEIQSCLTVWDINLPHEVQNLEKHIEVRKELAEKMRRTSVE"}, "[4]": {"molecular_target": "MAST1 (Homo sapiens, UniProt Q9Y2H9)"}, "[5]": {"molecular_target": "TESK1 (Homo sapiens, UniProt Q15569)"}, "[6]": {"molecular_target": "ABL1(T315I)-phosphorylated (Homo sapiens, UniProt P00519, T315I)"}, "[7]": {"molecular_target": "PAK6 (Homo sapiens, UniProt Q9NQU5)", "sequence (Q9NQU5 whole entry)": "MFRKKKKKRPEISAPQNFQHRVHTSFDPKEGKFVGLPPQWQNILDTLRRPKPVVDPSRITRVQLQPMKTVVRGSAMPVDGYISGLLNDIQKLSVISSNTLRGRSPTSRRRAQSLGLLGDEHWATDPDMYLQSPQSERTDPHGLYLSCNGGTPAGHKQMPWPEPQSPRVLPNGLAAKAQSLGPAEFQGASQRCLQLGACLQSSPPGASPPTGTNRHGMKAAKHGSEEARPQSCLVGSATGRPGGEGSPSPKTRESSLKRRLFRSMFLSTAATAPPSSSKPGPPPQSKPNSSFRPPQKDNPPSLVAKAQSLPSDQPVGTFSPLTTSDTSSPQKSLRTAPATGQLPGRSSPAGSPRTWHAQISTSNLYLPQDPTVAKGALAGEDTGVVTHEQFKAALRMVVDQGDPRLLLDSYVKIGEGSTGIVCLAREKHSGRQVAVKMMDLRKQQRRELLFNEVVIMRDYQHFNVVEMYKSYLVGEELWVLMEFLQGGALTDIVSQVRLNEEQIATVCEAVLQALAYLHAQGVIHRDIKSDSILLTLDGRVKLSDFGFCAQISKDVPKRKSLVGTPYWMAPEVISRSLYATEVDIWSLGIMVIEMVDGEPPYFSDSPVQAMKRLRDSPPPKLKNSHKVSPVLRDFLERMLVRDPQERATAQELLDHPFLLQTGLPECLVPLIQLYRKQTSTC"}, "[8]": {"molecular_target": "CLK4 (Homo sapiens, UniProt Q9HAZ1)"}, "[9]": {"molecular_target": "CAMK1 (Homo sapiens, UniProt Q14012)"}, "[10]": {"molecular_target": "KIT(V559D) (Homo sapiens, UniProt P10721, V559D)"}, "[11]": {"molecular_target": "ABL1-phosphorylated (Homo sapiens, UniProt P00519)"}, "[12]": {"molecular_target": "EPHA3 (Homo sapiens, UniProt P29320)"}, "[13]": {"molecular_target": "HIPK4 (Homo sapiens, UniProt Q8NE63)"}, "[14]": {"molecular_target": "DAPK3 (Homo sapiens, UniProt O43293)", "sequence (O43293 whole entry)": "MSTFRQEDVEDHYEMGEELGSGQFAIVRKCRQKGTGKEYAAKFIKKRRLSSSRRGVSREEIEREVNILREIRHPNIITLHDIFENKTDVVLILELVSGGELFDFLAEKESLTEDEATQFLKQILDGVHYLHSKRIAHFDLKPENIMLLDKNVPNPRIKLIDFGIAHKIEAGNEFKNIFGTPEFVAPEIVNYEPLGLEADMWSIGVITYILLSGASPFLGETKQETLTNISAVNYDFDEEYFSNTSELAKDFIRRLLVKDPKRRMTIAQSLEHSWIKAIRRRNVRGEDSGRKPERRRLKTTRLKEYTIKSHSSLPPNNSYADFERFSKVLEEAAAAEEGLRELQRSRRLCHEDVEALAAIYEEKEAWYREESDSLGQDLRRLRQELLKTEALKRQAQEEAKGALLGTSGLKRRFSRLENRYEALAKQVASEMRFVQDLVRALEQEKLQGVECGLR"}, "[15]": {"molecular_target": "T1, MLK2 (Homo sapiens, UniProt Q02779)", "T1 construct": "gene MAP3K10"}, "[16]": {"molecular_target": "FGFR2 (Homo sapiens, UniProt P21802)"}, "[17]": {"molecular_target": "FLT3(D835V) (Homo sapiens, UniProt P36888, D835V)"}, "[18]": {"molecular_target": "BTK (Homo sapiens, UniProt Q06187)"}, "[19]": {"molecular_target": "ABL1(F317L)-phosphorylated (Homo sapiens, UniProt P00519, F317L)"}, "[20]": {"molecular_target": "ABL1(Y253F)-phosphorylated (Homo sapiens, UniProt P00519, Y253F)"}, "[21]": {"molecular_target": "T2, DRAK2 (Homo sapiens, UniProt O94768)", "T2 construct": "gene STK17B"}, "[22]": {"molecular_target": "T3, p38-alpha (Homo sapiens, UniProt Q16539)", "T3 construct": "gene MAPK14"}, "[23]": {"molecular_target": "CDK7 (Homo sapiens, UniProt P50613)", "sequence (P50613 whole entry)": "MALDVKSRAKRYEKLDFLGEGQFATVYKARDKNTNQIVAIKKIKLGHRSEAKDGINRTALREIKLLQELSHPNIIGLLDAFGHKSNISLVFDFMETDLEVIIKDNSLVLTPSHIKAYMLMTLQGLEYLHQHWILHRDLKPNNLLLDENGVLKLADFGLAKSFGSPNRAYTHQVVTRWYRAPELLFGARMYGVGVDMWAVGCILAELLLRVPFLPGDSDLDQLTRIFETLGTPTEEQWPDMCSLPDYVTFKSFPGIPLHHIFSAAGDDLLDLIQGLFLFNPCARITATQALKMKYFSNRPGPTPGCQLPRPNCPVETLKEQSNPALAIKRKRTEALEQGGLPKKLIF"}, "[24]": {"molecular_target": "KIT(A829P) (Homo sapiens, UniProt P10721, A829P)"}, "[25]": {"molecular_target": "JAK2(JH1domain-catalytic) (Homo sapiens, UniProt O60674)"}, "[26]": {"molecular_target": "T4, NIK (Homo sapiens, UniProt Q99558)", "T4 construct": "gene MAP3K14"}, "[27]": {"molecular_target": "T5, PYK2 (Homo sapiens, UniProt Q14289)", "T5 construct": "gene PTK2B"}, "[28]": {"molecular_target": "DAPK2 (Homo sapiens, UniProt Q9UIK4)", "sequence (Q9UIK4 whole entry)": "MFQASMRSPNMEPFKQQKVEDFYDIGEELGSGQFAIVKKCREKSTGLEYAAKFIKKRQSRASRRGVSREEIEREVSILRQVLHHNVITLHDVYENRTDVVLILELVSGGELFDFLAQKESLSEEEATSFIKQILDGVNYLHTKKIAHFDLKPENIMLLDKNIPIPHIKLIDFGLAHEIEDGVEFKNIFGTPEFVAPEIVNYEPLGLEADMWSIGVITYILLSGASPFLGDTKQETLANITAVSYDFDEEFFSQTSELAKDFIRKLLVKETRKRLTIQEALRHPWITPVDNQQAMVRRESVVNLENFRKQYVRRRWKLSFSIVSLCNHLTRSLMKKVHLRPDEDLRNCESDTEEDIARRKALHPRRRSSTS"}, "[29]": {"molecular_target": "EPHA4 (Homo sapiens, UniProt P54764)"}, "[30]": {"molecular_target": "MAP3K3 (Homo sapiens, UniProt Q99759)"}, "[31]": {"molecular_target": "EPHA7 (Homo sapiens, UniProt Q15375)"}, "[32]": {"molecular_target": "PLK3 (Homo sapiens, UniProt Q9H4B4)"}, "[33]": {"molecular_target": "FLT3 (Homo sapiens, UniProt P36888)"}, "[34]": {"molecular_target": "TLK2 (Homo sapiens, UniProt Q86UE8)"}, "[35]": {"molecular_target": "CLK1 (Homo sapiens, UniProt P49759)", "sequence (P49759 whole entry)": "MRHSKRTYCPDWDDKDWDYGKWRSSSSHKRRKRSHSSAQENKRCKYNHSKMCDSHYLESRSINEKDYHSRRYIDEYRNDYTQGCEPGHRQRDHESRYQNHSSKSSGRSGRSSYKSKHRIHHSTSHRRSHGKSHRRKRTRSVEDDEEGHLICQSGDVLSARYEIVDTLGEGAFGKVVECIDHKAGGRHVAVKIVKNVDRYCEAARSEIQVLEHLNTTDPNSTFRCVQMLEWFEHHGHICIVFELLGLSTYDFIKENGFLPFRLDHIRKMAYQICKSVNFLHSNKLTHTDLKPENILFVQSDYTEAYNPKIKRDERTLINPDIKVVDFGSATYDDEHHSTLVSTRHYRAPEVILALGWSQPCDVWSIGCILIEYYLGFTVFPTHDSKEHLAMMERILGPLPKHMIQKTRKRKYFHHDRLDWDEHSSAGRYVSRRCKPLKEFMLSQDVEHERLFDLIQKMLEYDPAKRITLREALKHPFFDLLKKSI"}}, "data": [{"smiles": "Cc1cn(-c2cc(NC(=O)c3ccc4c(c3)CN(c3cncnc3)C[C@@H]4C)cc(C(F)(F)F)c2)cn1", "note": "[Compound 6j]", "values": [{"measurement": "remaining activity at 1 µM", "setting": "[1]", "value": 100, "unit": "%"}, {"measurement": "remaining activity at 1 µM", "setting": "[2]", "value": 100, "unit": "%"}, {"measurement": "remaining activity at 1 µM", "setting": "[3]", "value": 100, "unit": "%"}, {"measurement": "remaining activity at 1 µM", "setting": "[4]", "value": 100, "unit": "%"}, {"measurement": "remaining activity at 1 µM", "setting": "[5]", "value": 98, "unit": "%"}, {"measurement": "remaining activity at 1 µM", "setting": "[6]", "value": 97, "unit": "%"}, {"measurement": "remaining activity at 1 µM", "setting": "[7]", "value": 85, "unit": "%"}, {"measurement": "remaining activity at 1 µM", "setting": "[8]", "value": 96, "unit": "%"}, {"measurement": "remaining activity at 1 µM", "setting": "[9]", "value": 84, "unit": "%"}, {"measurement": "remaining activity at 1 µM", "setting": "[10]", "value": 80, "unit": "%"}, {"measurement": "remaining activity at 1 µM", "setting": "[11]", "value": 80, "unit": "%"}, {"measurement": "remaining activity at 1 µM", "setting": "[12]", "value": 55, "unit": "%"}, {"measurement": "remaining activity at 1 µM", "setting": "[13]", "value": 87, "unit": "%"}, {"measurement": "remaining activity at 1 µM", "setting": "[14]", "value": 69, "unit": "%"}, {"measurement": "remaining activity at 1 µM", "setting": "[15]", "value": 98, "unit": "%"}, {"measurement": "remaining activity at 1 µM", "setting": "[16]", "value": 74, "unit": "%"}, {"measurement": "remaining activity at 1 µM", "setting": "[17]", "value": 48, "unit": "%"}, {"measurement": "remaining activity at 1 µM", "setting": "[18]", "value": 100, "unit": "%"}, {"measurement": "remaining activity at 1 µM", "setting": "[19]", "value": 74, "unit": "%"}, {"measurement": "remaining activity at 1 µM", "setting": "[20]", "value": 98, "unit": "%"}, {"measurement": "remaining activity at 1 µM", "setting": "[21]", "value": 97, "unit": "%"}, {"measurement": "remaining activity at 1 µM", "setting": "[22]", "value": 62, "unit": "%"}, {"measurement": "remaining activity at 1 µM", "setting": "[23]", "value": 80, "unit": "%"}, {"measurement": "remaining activity at 1 µM", "setting": "[24]", "value": 100, "unit": "%"}, {"measurement": "remaining activity at 1 µM", "setting": "[25]", "value": 100, "unit": "%"}, {"measurement": "remaining activity at 1 µM", "setting": "[26]", "value": 100, "unit": "%"}, {"measurement": "remaining activity at 1 µM", "setting": "[27]", "value": 93, "unit": "%"}, {"measurement": "remaining activity at 1 µM", "setting": "[28]", "value": 94, "unit": "%"}, {"measurement": "remaining activity at 1 µM", "setting": "[29]", "value": 77, "unit": "%"}, {"measurement": "remaining activity at 1 µM", "setting": "[30]", "value": 85, "unit": "%"}, {"measurement": "remaining activity at 1 µM", "setting": "[31]", "value": 62, "unit": "%"}, {"measurement": "remaining activity at 1 µM", "setting": "[32]", "value": 100, "unit": "%"}, {"measurement": "remaining activity at 1 µM", "setting": "[33]", "value": 56, "unit": "%"}, {"measurement": "remaining activity at 1 µM", "setting": "[34]", "value": 98, "unit": "%"}, {"measurement": "remaining activity at 1 µM", "setting": "[35]", "value": 92, "unit": "%"}]}]}
